Source: patent publication US12077503B2, “Substituted cyclic amides and their use as herbicides” (FMC CORPORATION, priority 2015, dated 2024)
Where two headings read alike, the source gives them in different places.

Experiments:
[1] = test system: ryegrass, Italian (Italian ryegrass, Lolium multiflorum); assay: Test A preemergence; type: in vivo; settings: Lolium multiflorum, pre-emergence, 240 h; for pest or weed control at 125 g/ha: 125 g ai/ha; for pest or weed control at 500 g/ha: 500 g ai/ha
Outline: (§1)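 Preemergence soil spray on seeded pots or post-emergence spray on 1–2 leaf plants, in loam–sand blend. Greenhouse ~10 d. Visual rating 0–100 against untreated plants.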

[2] = test system: ragweed (common ragweed, Ambrosia elatior); assay: Test A preemergence; type: in vivo; settings: Ambrosia artemisiifolia, pre-emergence, 240 h; for pest or weed control at 125 g/ha: 125 g ai/ha; for pest or weed control at 500 g/ha: 500 g ai/ha
Outline: as §1

[3] = test system: barnyardgrass (Echinochloa crus-galli); assay: Test A preemergence; type: in vivo; settings: Echinochloa crus-galli, pre-emergence, 240 h; for pest or weed control at 125 g/ha: 125 g ai/ha; for pest or weed control at 500 g/ha: 500 g ai/ha
Outline: as §1

[4] = test system: Kochia (Kochia scoparia); assay: Test A preemergence; type: in vivo; settings: Bassia scoparia, pre-emergence, 240 h; for pest or weed control at 125 g/ha: 125 g ai/ha; for pest or weed control at 500 g/ha: 500 g ai/ha
Outline: as §1

[5] = test system: giant foxtail (Setaria faberii); assay: Test A preemergence; type: in vivo; settings: Setaria faberi, pre-emergence, 240 h; for pest or weed control at 125 g/ha: 125 g ai/ha; for pest or weed control at 500 g/ha: 500 g ai/ha
Outline: as §1

[6] = preemergence, 0 to 100 scale where 0 is no effect and 100 is complete control, approx. 10 d, read-out: Ryegrass, Italian plant response rating
[7] = preemergence, 0 to 100 scale where 0 is no effect and 100 is complete control, read-out: Ryegrass, Italian plant response rating
[8] = preemergence, 0 to 100 scale where 0 is no effect and 100 is complete control, approx. 10 d, read-out: Ragweed plant response rating
[9] = preemergence, 0 to 100 scale where 0 is no effect and 100 is complete control, read-out: Ragweed plant response rating
[10] = preemergence, 0 to 100 scale where 0 is no effect and 100 is complete control, approx. 10 d, read-out: Barnyardgrass plant response rating
[11] = preemergence, 0 to 100 scale where 0 is no effect and 100 is complete control, read-out: Barnyardgrass plant response rating
[12] = preemergence, 0 to 100 scale where 0 is no effect and 100 is complete control, approx. 10 d, read-out: Kochia plant response rating
[13] = preemergence, 0 to 100 scale where 0 is no effect and 100 is complete control, read-out: Kochia plant response rating
[14] = preemergence, 0 to 100 scale where 0 is no effect and 100 is complete control, approx. 10 d, read-out: Foxtail, Giant plant response rating
[15] = preemergence, 0 to 100 scale where 0 is no effect and 100 is complete control, read-out: Foxtail, Giant plant response rating
[16] = Preemergence, visual injury vs untreated controls after approximately 10 d, read-out: Ryegrass, Italian plant response rating (0 to 100 scale where 0 is no effect and 100 is complete control)
[17] = Preemergence, visual injury vs untreated controls after approximately 10 d, read-out: Ragweed plant response rating (0 to 100 scale where 0 is no effect and 100 is complete control)
[18] = Preemergence, visual injury vs untreated controls after approximately 10 d, read-out: Barnyardgrass plant response rating (0 to 100 scale where 0 is no effect and 100 is complete control)
[19] = Preemergence, visual injury vs untreated controls after approximately 10 d, read-out: Kochia plant response rating (0 to 100 scale where 0 is no effect and 100 is complete control)
[20] = Preemergence, visual injury vs untreated controls after approximately 10 d, read-out: Foxtail, Giant plant response rating (0 to 100 scale where 0 is no effect and 100 is complete control)
[21] = Preemergence, visual injury rating after approximately 10 d, read-out: Ryegrass, Italian plant response rating (0 to 100 scale, 0 is no effect, 100 is complete control)
[22] = preemergence, visual injury rating about 10 d after treatment, 0 to 100 scale (0 no effect, 100 complete control), read-out: Ryegrass, Italian plant response rating
[23] = Preemergence, visual injury rating after approximately 10 d, read-out: Ragweed plant response rating (0 to 100 scale, 0 is no effect, 100 is complete control)
[24] = preemergence, visual injury rating about 10 d after treatment, 0 to 100 scale (0 no effect, 100 complete control), read-out: Ragweed plant response rating
[25] = Preemergence, visual injury rating after approximately 10 d, read-out: Barnyardgrass plant response rating (0 to 100 scale, 0 is no effect, 100 is complete control)
[26] = preemergence, visual injury rating about 10 d after treatment, 0 to 100 scale (0 no effect, 100 complete control), read-out: Barnyardgrass plant response rating
[27] = Preemergence, visual injury rating after approximately 10 d, read-out: Kochia plant response rating (0 to 100 scale, 0 is no effect, 100 is complete control)
[28] = preemergence, visual injury rating about 10 d after treatment, 0 to 100 scale (0 no effect, 100 complete control), read-out: Kochia plant response rating
[29] = Preemergence, visual injury rating after approximately 10 d, read-out: Foxtail, Giant plant response rating (0 to 100 scale, 0 is no effect, 100 is complete control)
[30] = preemergence, visual injury rating about 10 d after treatment, 0 to 100 scale (0 no effect, 100 complete control), read-out: Foxtail, Giant plant response rating

Compound	melting point	pest or weed control at 125 g/ha [1, 6]	pest or weed control at 125 g/ha [2, 8]	pest or weed control at 125 g/ha [3, 10]	pest or weed control at 125 g/ha [4, 12]	pest or weed control at 125 g/ha [5, 14]	pest or weed control at 500 g/ha [1, 22]	pest or weed control at 500 g/ha [2, 24]	pest or weed control at 500 g/ha [3, 26]	pest or weed control at 500 g/ha [4, 28]	pest or weed control at 500 g/ha [5, 30]	further results
CN1CC(c2cccc(Br)c2)C(C(=O)Nc2ccccc2F)C1=O (centres unmarked) [Compound 1132]	142 to 146 °C	30%	0%	90%	0%	100%						pest or weed control at 500 g/ha [1, 7]: 50%; pest or weed control at 500 g/ha [2, 9]: 0%; pest or weed control at 500 g/ha [3, 11]: 90%; pest or weed control at 500 g/ha [4, 13]: 0%; pest or weed control at 500 g/ha [5, 15]: 100%
CCc1cc([C@H]2CNC(=O)[C@@H]2C(=O)Nc2ccccc2F)cs1 [Compound 913]	96 to 100 °C											pest or weed control at 125 g/ha [1, 7]: 0%; pest or weed control at 500 g/ha [1, 16]: 40%; pest or weed control at 125 g/ha [2, 9]: 0%; pest or weed control at 500 g/ha [2, 17]: 60%; pest or weed control at 125 g/ha [3, 11]: 80%; pest or weed control at 500 g/ha [3, 18]: 90%; pest or weed control at 125 g/ha [4, 13]: 0%; pest or weed control at 500 g/ha [4, 19]: 40%; pest or weed control at 125 g/ha [5, 15]: 50%; pest or weed control at 500 g/ha [5, 20]: 90%
O=C1NC[C@H](c2ccc(F)c(OC(F)(F)C(F)(F)Br)c2)[C@H]1C(=O)Nc1ccccc1F [Compound 1134]	133 to 137 °C	0%	0%	30%	50%	70%						pest or weed control at 500 g/ha [1, 7]: 40%; pest or weed control at 500 g/ha [2, 9]: 70%; pest or weed control at 500 g/ha [3, 11]: 80%; pest or weed control at 500 g/ha [4, 13]: 60%; pest or weed control at 500 g/ha [5, 15]: 90%
COc1cccc(C2CN(C)C(=O)C2C(=O)Nc2cccc(F)c2F)c1 (centres unmarked) [Compound 886]	137 to 140 °C											pest or weed control at 125 g/ha [1, 7]: 0%; pest or weed control at 500 g/ha [1, 16]: 60%; pest or weed control at 125 g/ha [2, 9]: 0%; pest or weed control at 500 g/ha [2, 17]: 50%; pest or weed control at 125 g/ha [3, 11]: 90%; pest or weed control at 500 g/ha [3, 18]: 90%; pest or weed control at 125 g/ha [4, 13]: 80%; pest or weed control at 500 g/ha [4, 19]: 90%; pest or weed control at 125 g/ha [5, 15]: 90%; pest or weed control at 500 g/ha [5, 20]: 100%
Cc1ccc([C@H]2CCNC(=O)[C@@H]2C(=O)Nc2cccc(F)c2F)cc1 [Compound 973]	174 to 176 °C						30%	70%	90%	60%	90%	pest or weed control at 125 g/ha [1, 21]: 0%; pest or weed control at 125 g/ha [2, 23]: 0%; pest or weed control at 125 g/ha [3, 25]: 90%; pest or weed control at 125 g/ha [4, 27]: 0%; pest or weed control at 125 g/ha [5, 29]: 90%
O=C1NC[C@H](c2cc(C(F)(F)F)ccn2)[C@H]1C(=O)Nc1ccccc1F [Compound 948]	115 to 119 °C						0%	0%	90%	0%	90%	pest or weed control at 125 g/ha [1, 21]: 0%; pest or weed control at 125 g/ha [2, 23]: 0%; pest or weed control at 125 g/ha [3, 25]: 70%; pest or weed control at 125 g/ha [4, 27]: 0%; pest or weed control at 125 g/ha [5, 29]: 70%
CN1C[C@H](c2cc(F)cc(F)c2)[C@@H](C(=O)Nc2cnccc2Cl)C1=O [Compound 1096]		0%	0%	0%	0%	0%	0%	0%	0%	0%	0%	
Cc1cc([C@H]2CN(C)C(=O)[C@@H]2C(=O)Nc2ccc(F)c(F)c2F)ccc1Br [Compound 1101]		30%	0%	90%	60%	90%	70%	40%	90%	70%	90%	
